One compound from patent publication US9981968B2, “Substituted pyrrolo[2,3-d]pyrimidines for the treatment of cancer and proliferative disorders” (Northwestern University, priority 2013, dated 2018) can be followed below.

Assay [1] has as its system NCI-60 Cell Lines. Description: Inhibiting growth of NCI-60 cell lines (panel summary). It is filed as cell-based, human. The note with it: 10 μM, compared to doxorubicin. As for the experimental part: NUCL 381-3 and NUCL 383-3 (referred to as “NUCC-00381” and “NUCC-000383” above, respectively) were administered to a variety of cancer cell lines in order to test their ability to inhibit cell growth as compared to doxorubicin.
Tested cell lines included, Leukemia: CCRF-CEM, HL-60(TB), MOLT-4, RPMI-8226 and SR; Non-Small Cell Lung: A549/ATCC, EKVX, HOP-62, HOP-92, NCI-H226, NCI-H23, NCI-H322M, NCI-H460 and NCI-H522; Colon: COLO 205, HCC-2998, HCT-116, HCT-15. HT29, KM12 and SW-620; CNS: SF-268, SF-295, SF-539, SNB-19, SNB-75 and U251; Melanoma: LOX IMVI, MALME-3M, M14, MDA-MB-435, SK-MEL-2, SK-MEL-28, SK-MEL-5, UACC-257 and UACC-62; Ovarian: IGR-OV1, OVCAR-3, OVCAR-4, OVCAR-5, OVCAR-8. NCI/ADR-RES and SK-OV-3; Renal: 786-0, A498, ACHN, CAKI-1, RXF 393, SN12C, TK-10 and UO-31; Prostate: DU-145 and PC-3; and Breast: MCF7, MDA-MB-231/ATCC, MDA-MB-468, HS 578T, BT-549 and T-47D.
The cells were cultured in RPMI1640 media supplemented with 10% Fetal Bovine Serum (FBS), 2 mM glutamine and with 5% CO2 and 37° C. […]
Cells were plated in 96 well plates. […] One hundred microliters of Trizma base was added to each well and plates were read at 515 nm.
Percent of growth was calculated by the following formulas: [Ti/C]×100, where: Tz=absorbance readings for wells at time zero without treatment; C=absorbance readings of untreated cells (without treatment); and Ti=absorbance reading of wells with treatment.

Assay [2] deals with U937 cell lines. Description: Immunoblot of PARP cleavage and cleaved caspase 3. It is filed as cell-based, human. Conditions: U937 cell lysates, FIG. 17. The procedure: FIG. 17. Immunoblot of cell lysates from U937 cell lines treated with Compounds 381, 383, 409 (as test compounds) and Compound 501 (as a negative control) as compared to 8-amino adenosine (8NH2-Ado) and 8-chloro adenosine (8Cl-Ado) (as positive controls). The impact of the compounds on proteins associated with cell death was assessed via performing an immunoblot. (See FIG. 17). PARP cleavage indicated activation of the caspase cascade and cell death by induction of apoptosis. Similarly detection of cleaved caspase 3 indicated activation of caspase activity and cell death by apoptosis. GAPDH was included as a loading control to indicate approximately equal loading of protein.

Consider `FC(F)(F)c1cn(CC2CCNCC2)c2ncnc(Cl)c12` [NUCC-0000381], for which the “cell viability across NCI-60 cell lines” value in assay [1] is “reduce cell viability for a number of cell lines”. Also, in assay [2], the “induction of apoptosis (PARP cleavage, cleaved caspase 3)” value is reported as “Induction of apoptosis was observed”.
